Data as given in patent publication US20080312271A1, “AZABENZIMIDAZOLYL COMPOUNDS” (Pfizer Inc., priority 2006, published 2008).

Each compound was assayed against T1, mGluR2 receptor (metabotropic glutamate receptor 2) (Homo sapiens, UniProt Q14416) (assay: mGluR2 Potentiator Screen, FLIPR, EC10-EC20 glutamate challenge). Conditions: not given.
T1 construct: expressed in transfected cells
Assay type: cell-based
Method: Procedure for mGluR2 Potentiator Screen NLB methods EC10-EC20 Challenge Cell Culture and Plating:
Cells used for this screen are HEK cells stably transfected with the mGluR2 receptor (metabotropic glutamate receptor 2) and the Gα15 G protein. Clones were identified by functional activity (FLIPR). Cells are grown in growth media containing: DMEM High Glucose with Glutamine and Na Pyruvate (GIBCO), 10% (v/v) Heat inactivate FBS (GIBCO), G418 500 ug/ml (from 50 mg/ml stock) (GIBCO) and Blasticidin 3 ug/ml (from 5 mg/ml stock made in H2O) (Invitrogen).
2 days before the assay cell are trypsinized with 0.25% trysin/EDTA (GIBCO), spun down at 1000 rpm for 5 minutes, resuspended in growth media and plated on polystyrene 384 well black wall 1 clear bottom poly-D-lysine coated plates at a density of approximately 18,000 cells/well in a volume of 50 μL per well. One day before the assay the growth media is removed from the plates by flicking, and replaced with media containing DMEM High Glucose without Glutamine and Na Pyruvate (GIBCO) and 10% (v/v) dialyzed FBS (GIBCO). The reason for the removal of glutamine the day before the assay is to minimize the amount of glutamate that will be present during the assay, as endogenous glutarnate released from the cells can reduce the fluorescent response and interfere with the FLIPR screen.
FLIPR Methods and Data Analysis:
On the day of the assay, the FLIPR assay is performed using the following methods.
The pH is adjusted to 7.4 with 1 M NaOH. Prepare a 2 mM (approx.) stock solution of Fluo-4,am (Molecular Probes) dye in DMSO-22 μl DMSO per 50 ug vial (440 μL per 1 mg vial). Make a 1 mM (approx.) flou-4, PA working solution per vial by adding 22 μl of 20% pluronic acid (PA), (Molecular Probes) in DMSO to each 50 ug vial (440 μL per 1 mg vial). Prepare a 250 mM Probenecid (Sigma) stock solution by dissolving 0.71 g into 5 ml 1N NaOH and 5 ml assay buffer (for each liter of assay wash buffer)L Make 4 uM (approx.) dye incubation media by adding […] per 11 ml DMEM high glucose without glutamine (220 ml per 1 mg vial). Add 110 μL probenecid stock per 11 ml (2.5 mM final [concentration]). To the dye media add 3 units/ml of glutamic-pyruvic transaminase (GPT, Sigma) and 3 mM Na Pyruvate. The assay has worked with dye concentrations from 2 uM to 8 uM dye as well. To the assay buffer from drug preparation, add 1.83 mls DMSO and 400 μL 15.8% P104 (from New Leads biology) per liter for final concentrations of 0.18% DMSO and 0.006% P104. To the assay buffer for cell washing, add probenecid in the same manner and concentration that was used for the dye media.
Remove growth media from cell plates by flicking. Add 50 μl/well dye solution. Incubate 1 hour at 37° C. and 5% CO2. Remove dye solution and wash 3 times with assay buffer+probenecid (100 μl probenecid stock per 10 ml buffer), leaving 30 μL/well assay buffer. Wait at least 10-15 minutes. Compounds and agonist challenge additions are performed with the FLIPR. The 1st addition is for test compounds, which are added as 15 μL of 4×[concentration] of potentiator. The second 2nd addition is 15 μL of 4×[concentration] of agonist or challenge. This achieves 1× concentration of all compounds only after 2nd addition. The 1st and 2nd additions are performed separately using the FLIPR, which give 2 different data files. Compounds are pretreated at least 30 minutes before agonist addition,
Results are analyzed by dividing the peak fluorescent value of the FLIPR response by the […] to achieve a ratio response. The ratios are then analyzed by curve fitting programs. […] Maximum values for dose response curves (forced fitting) are derived from standards on the plate.
Compound Preparation and Glutamate Challenge:
Compounds are delivered as 10 mM DMSO stocks or as powders, Powders are solubilized in DMSO at 10 mM (as solubility allows). Compounds are sonicated in a heated water bath (35-40° C.) for at least 20 minutes.

T1 sequence (Q14416 19-872, species assumed): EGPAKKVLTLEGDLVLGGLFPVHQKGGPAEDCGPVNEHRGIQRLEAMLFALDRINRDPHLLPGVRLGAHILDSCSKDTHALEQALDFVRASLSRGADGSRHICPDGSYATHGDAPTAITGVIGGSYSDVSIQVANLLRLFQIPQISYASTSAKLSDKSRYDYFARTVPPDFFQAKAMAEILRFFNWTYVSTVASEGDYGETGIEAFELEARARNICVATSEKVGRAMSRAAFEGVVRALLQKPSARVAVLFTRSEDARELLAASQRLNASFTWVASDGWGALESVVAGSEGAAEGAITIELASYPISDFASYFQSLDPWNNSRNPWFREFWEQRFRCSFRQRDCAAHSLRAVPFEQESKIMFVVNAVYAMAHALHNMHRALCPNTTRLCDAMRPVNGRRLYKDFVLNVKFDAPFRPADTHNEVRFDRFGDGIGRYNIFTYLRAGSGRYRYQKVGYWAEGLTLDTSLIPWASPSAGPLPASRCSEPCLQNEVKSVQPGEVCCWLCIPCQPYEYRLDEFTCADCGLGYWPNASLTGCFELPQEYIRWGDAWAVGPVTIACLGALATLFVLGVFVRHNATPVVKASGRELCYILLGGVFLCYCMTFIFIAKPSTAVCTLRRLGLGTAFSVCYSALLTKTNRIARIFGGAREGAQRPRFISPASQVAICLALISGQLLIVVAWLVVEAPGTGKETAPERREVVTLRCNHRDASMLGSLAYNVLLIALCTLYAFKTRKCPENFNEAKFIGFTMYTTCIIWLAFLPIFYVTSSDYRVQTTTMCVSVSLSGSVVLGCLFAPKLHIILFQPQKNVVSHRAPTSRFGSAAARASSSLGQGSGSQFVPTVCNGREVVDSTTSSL

| EC50 [nM] | SMILES |
| --- | --- |
| 1310 | COc1cc(C(F)(F)F)ccc1[C@H]1CCN(Cc2nc3cnccc3n2C)C[C@H]1C (single isomer, unassigned) [compound 141] |
| > 314 | COc1cc(C(F)(F)F)ccc1[C@H]1CCN(Cc2nc3cnccc3n2C)C[C@H]1C (single isomer, unassigned) [compound 142] |
| 1180 | C[C@@H]1CN(Cc2nc3cnccc3n2C)CC[C@@H]1c1ccc(C(F)(F)F)cc1F (single isomer, unassigned) [compound 143] |
| 23 | C[C@@H]1CN(Cc2nc3cnccc3n2C)CC[C@@H]1c1ccc(C(F)(F)F)cc1F (single isomer, unassigned) [compound 144] |
| < 31.3 | C[C@@H]1CN(Cc2nc3cnccc3n2C)CC[C@@H]1c1ccc(OC(F)(F)F)cc1F (single isomer, unassigned) [compound 159] |
| < 18 | C[C@@H]1CN(Cc2nc3ncccc3n2C)CC[C@@H]1c1ccc(C(F)(F)F)cc1Cl (single isomer, unassigned) [compound 162] |
| 396 | C[C@@H]1CN(Cc2nc3ncccc3n2C)CC[C@@H]1c1ccc(C(F)(F)F)cc1Cl (single isomer, unassigned) [compound 163] |
| 1520 | C[C@@H]1CN(Cc2nc3cnccc3n2C)CC[C@@H]1c1ccc(C(F)(F)F)cc1Cl (single isomer, unassigned) [compound 171] |
| 48.5 | C[C@@H]1CN(Cc2nc3cnccc3n2C)CC[C@@H]1c1ccc(C(F)(F)F)cc1Cl (single isomer, unassigned) [compound 172] |
| > 3200 | C[C@@H]1CN(Cc2nc3cnccc3n2C)CC[C@@H]1c1ccc(OC(F)(F)F)cc1 (single isomer, unassigned) [compound 175] |
| 98.9 | C[C@@H]1CN(Cc2nc3cnccc3n2C)CC[C@@H]1c1ccc(OC(F)(F)F)cc1 (single isomer, unassigned) [compound 176] |
| 53.2 | C[C@@H]1CN(Cc2nc3cnccc3n2C)CC[C@@H]1c1ccc(C(F)(F)F)c(F)c1 (single isomer, unassigned) [compound 183] |
| > 2710 | C[C@@H]1CN(Cc2nc3cnccc3n2C)CC[C@@H]1c1ccc(C(F)(F)F)c(F)c1 (single isomer, unassigned) [compound 184] |
| 64.2 | C[C@@H]1CN(Cc2nc3ncccc3n2C)CC[C@@H]1c1ccc(Cl)cc1Cl (single isomer, unassigned) [compound 185] |
| 611 | C[C@@H]1CN(Cc2nc3ncccc3n2C)CC[C@@H]1c1ccc(Cl)cc1Cl (single isomer, unassigned) [compound 186] |
| 56 | C[C@@H]1CN(Cc2nc3cnccc3n2C)CC[C@@H]1c1ccc(OC(F)(F)F)cc1F (single isomer, unassigned) [compound 196] |
| 29.8 | CC(C)Oc1ccc([C@H]2CCN(Cc3nc4ncccc4n3C)C[C@H]2C)c(F)c1 (single isomer, unassigned) [compound 217] |
| > 909 | CC(C)Oc1ccc([C@H]2CCN(Cc3nc4ncccc4n3C)C[C@H]2C)c(F)c1 (single isomer, unassigned) [compound 218] |
| 60.6 | CC(C)Oc1ccc([C@H]2CCN(Cc3nc4cnccc4n3C)C[C@H]2C)c(F)c1 (single isomer, unassigned) [compound 219] |
| > 1190 | CC(C)Oc1ccc([C@H]2CCN(Cc3nc4cnccc4n3C)C[C@H]2C)c(F)c1 (single isomer, unassigned) [compound 220] |
| 77.8 | CC(C)Oc1ccc([C@H]2CCN(Cc3nc4ncccc4n3C)C[C@H]2C)c(Cl)c1 (single isomer, unassigned) [compound 221] |
| > 603 | CC(C)Oc1ccc([C@H]2CCN(Cc3nc4ncccc4n3C)C[C@H]2C)c(Cl)c1 (single isomer, unassigned) [compound 222] |
| > 129 | C[C@@H]1CN(Cc2nc3ncccc3n2C)CC[C@@H]1c1ccc(OC(F)F)cc1 (single isomer, unassigned) [compound 223] |
| > 1920 | C[C@@H]1CN(Cc2nc3ncccc3n2C)CC[C@@H]1c1ccc(OC(F)F)cc1 (single isomer, unassigned) [compound 224] |
| 95 | C[C@@H]1CN(Cc2nc3cnccc3n2C)CC[C@@H]1c1cc(F)c(F)cc1F (single isomer, unassigned) [compound 225] |
| > 1260 | C[C@@H]1CN(Cc2nc3cnccc3n2C)CC[C@@H]1c1cc(F)c(F)cc1F (single isomer, unassigned) [compound 226] |
| 62.6 | FC(F)(F)c1ccc(C2CCN(Cc3nc4nccc5c4n3CCC5)CC2)cc1 [Example 126, 2-({4-[4-(trifluoromethyl)phenyl]-piperidin-1-yl}methyl)-5,6-dihydro-4H-imidazo[4,5,1-ij]-1,7-naphthyridine] |
| < 5.43 | COc1cc(C(F)(F)F)ccc1C1CCN(Cc2nc3nccc4c3n2CCC4)CC1 [Example 135, 2-({4-[2-methoxy-4-(trifluoromethyl)phenyl]-piperidin-1-yl}methyl)-5,6-dihydro-4H-imidazo[4,5,1-ij]-1,7-naphthyridine] |
| 392 | CCCOc1ccc(Cl)cc1C1CCN(Cc2nc3ncccc3n2C)CC1 [compound 38] |
| 396 | CCCOc1ccc(Cl)cc1C1CCN(Cc2nc3cnccc3n2C)CC1 [compound 39] |

Same assay, conditions: HEK cells stably transfected with mGluR2 and Gα15; FLIPR (Fluo-4); potentiation of an EC10 to EC20 concentration of glutamate; Table 9

| EC50 [nM] | SMILES |
| --- | --- |
| 62.6 | FC(F)(F)c1ccc(C2CCN(Cc3nc4nccc5c4n3CCC5)CC2)cc1 [Example 126, 2-({4-[4-(trifluoromethyl)phenyl]-piperidin-1-yl}methyl)-5,6-dihydro-4H-imidazo[4,5,1-ij]-1,7-naphthyridine] |
| < 5.43 | COc1cc(C(F)(F)F)ccc1C1CCN(Cc2nc3nccc4c3n2CCC4)CC1 [Example 135, 2-({4-[2-methoxy-4-(trifluoromethyl)phenyl]-piperidin-1-yl}methyl)-5,6-dihydro-4H-imidazo[4,5,1-ij]-1,7-naphthyridine] |

Same assay, conditions: mGluR2 potentiator screen, FLIPR, EC10-EC20 glutamate challenge

| EC50 [nM] | SMILES |
| --- | --- |
| 36 | C[C@@H]1CN(Cc2nc3ncccc3n2C)CC[C@@H]1c1ccc(OC(F)F)cc1Cl (single isomer, unassigned) [compound 244] |
| 262 | C[C@@H]1CN(Cc2nc3ncccc3n2C)CC[C@@H]1c1ccc(OC(F)F)cc1Cl (single isomer, unassigned) [compound 245] |
| 99.9 | C[C@@H]1CN(Cc2nc3cnccc3n2C)CC[C@@H]1c1ccc(OC(F)F)cc1Cl (single isomer, unassigned) [compound 246] |
| > 1410 | C[C@@H]1CN(Cc2nc3cnccc3n2C)CC[C@@H]1c1ccc(OC(F)F)cc1Cl (single isomer, unassigned) [compound 247] |
| 21 | C[C@@H]1CN(Cc2nc3ncccc3n2C)CC[C@@H]1c1ccc(F)cc1C(F)(F)F (single isomer, unassigned) [compound 251] |
| 288 | C[C@@H]1CN(Cc2nc3ncccc3n2C)CC[C@@H]1c1ccc(F)cc1C(F)(F)F (single isomer, unassigned) [compound 252] |
| 1820 | C[C@@H]1CN(Cc2nc3cnccc3n2C)CC[C@@H]1c1ccc(OC(F)(F)F)cc1Cl (single isomer, unassigned) [compound 253] |
| 86.6 | C[C@@H]1CN(Cc2nc3cnccc3n2C)CC[C@@H]1c1ccc(OC(F)(F)F)cc1Cl (single isomer, unassigned) [compound 254] |
| 76.9 | C[C@@H]1CN(Cc2nc3ncccc3n2C)CC[C@@H]1c1ccc(OC(F)(F)F)cc1Cl (single isomer, unassigned) [compound 255] |
| > 704 | C[C@@H]1CN(Cc2nc3ncccc3n2C)CC[C@@H]1c1ccc(OC(F)(F)F)cc1Cl (single isomer, unassigned) [compound 256] |
| 1460 | COc1cc(F)ccc1[C@H]1CCN(Cc2nc3cnccc3n2C)C[C@H]1C (single isomer, unassigned) [compound 259] |
| 125 | COc1cc(F)ccc1[C@H]1CCN(Cc2nc3cnccc3n2C)C[C@H]1C (single isomer, unassigned) [compound 260] |
